# Experimental data: paper PMC11150261, “Evaluation of antibacterial, cytotoxicity, and apoptosis activity of novel chromene-sulfonamide hybrids synthesized under solvent-free conditions and 3D-QSAR modeling studies” (Scientific Reports, 2024)
# Entries after “also recorded” stand apart in the source; their conditions may differ. Like-named read-outs stand apart in the source and are kept apart here.
# Columns and labels:
# S. aureus ATCC 25923 = experiment: Broth microdilution MIC; format: cell-based; conditions: for MIC effect on S. aureus: SAR effect diagram, Table 6; for MIC: Staphylococcus aureus, ATCC25923
# Experimental: (§1) A broth microdilution method was utilized to explore the minimum inhibitory concentrations (MIC) of all the newly synthesized compounds against E. coli ATCC 25922 and S. aureus ATCC 25923. Test compounds were prepared using dimethyl sulfoxide (DMSO) as a stock solution, followed by serial dilutions in Mueller Hinton broth containing up to one percent DMSO. At the end, a diluted bacterial suspension from a 0.5 McFarland tube was added to all the wells (the final volume of each well was 1 × 10^5 CFU/ml). In the growth control, a culture medium with bacteria was used as a positive control, and a culture medium without bacteria was used as a negative control (sterility control). The MIC was the lowest concentration of the synthesized compounds that produced no growth on the plate. Sulfisoxazole, functioning as a sulfonamide antibiotic, and gentamicin were employed in a comparative analysis of antibacterial activity, cytotoxicity, and apoptosis assessment.
# E. coli ATCC 25922 = experiment: Broth microdilution MIC; format: cell-based; conditions: for MIC: Escherichia coli, ATCC25922; for MIC effect on E. coli: SAR effect diagram
# Experimental: as §1
# fibroblast L929 cells = experiment: Cytotoxicity assay by MTT; format: cell-based; conditions: Mus musculus, fibroblast L929 cell line, 24 h
# Experimental: MTT was applied to evaluate the cytotoxicity of the newly synthesized compounds against fibroblast L929 cells (Pasteur Institute, Tehran, Iran). Briefly, 100 μl of cell suspension (1 × 10^4 cells/well) in RPMI 1640 medium, as seeded in 96-well microplates and incubated for 24 h (37 °C, 5% CO2 air humidified). After removing the old media, 100 µl of each of the newly synthesized compounds was added to each well at different concentrations. The plates were incubated for another 24 h in the same condition. To determine the positive and negative controls, doxorubicin and DMSO were used. Cell survival was determined by adding 10 µL of an MTT solution (5 mg/ml in PBS) to each well and incubating at 37 °C for 3 h. The previous MTT-containing media was then removed, and 100 µL DMSO was pipetted into each well to dissolve the produced formazan crystals. Using an ELISA plate reader (Startfix-2100, Awareness, USA), absorbance was measured at 570 nm. By plotting the percentage of cytotoxicity versus concentration of the produced compounds, the concentrations that inhibit half of the cell population (IC50) were determined. A mean and standard deviation (SD) are used to represent the results. The percentage cell viability was calculated using the formula: Viability=Absorbance \, of \, treated \, cells-background \, absorbance(b)/Absorbance \, of \, untreated \, cells(c)-background \, absorbance(b)×100 where (b) = blank, and (c) = control.
# [1] = tested on: fibroblast L929 cell line; experiment: Apoptosis Annexin V binding assay (flow cytometry); format: cell-based
# Experimental: (§2) To detect apoptosis, the Annexin V binding assay was used. The assay was performed according to the manufacturer's instructions using a FITC Annexin V Apoptosis Detection Kit with PI from BioLegend® (San Diego, California). To conduct this test, the fibroblast L929 cell line (Pasteur Institute, Tehran, Iran) was treated with various concentrations of the newly synthesized compounds and then incubated for 24 h at 37 °C with 5% CO2. Subsequently, each well's supernatant was removed and the cells were washed with PBS. Each well was then filled with 500 μl of Annexin-binding buffer (10 mM HEPES, 140 mM NaCl, and 2.5 mM CaCl2, pH 7.4) and 10 μl of Annexin V and PI. For 15 min, the plates were incubated at room temperature and kept away from light. After incubation, using a BD FACSCalibur flow cytometer (Biosciences, San Jose, CA, USA), the cells were examined after incubation. FlowJo software (version 10.5.3, TreeStar Incorporated, Ashland, OR) was used to analyze flow cytometry data.
# [2] = Apoptosis Annexin V binding assay (flow cytometry); format: cell-based; conditions: mouse, L929 fibroblast cells; L929, IC50 concentration, Annexin V-FITC/PI
# Experimental: as §2
# [3] = Table 7, read-out: MIC for S. aureus
# [4] = microdilution method, read-out: Minimum inhibitory concentrations (MIC) S. aureus ATCC 25923
# [5] = Table 6, antibacterial activity against E. coli, read-out: MIC for E. coli ATCC 25922
# [6] = microdilution method, read-out: Minimum inhibitory concentrations (MIC) E. coli ATCC 25922
Structure (SMILES),melting point [°C],MIC effect on S. aureus (S. aureus ATCC 25923),MIC (S. aureus ATCC 25923; [3]) [µg/mL],MIC (S. aureus ATCC 25923; [4]) [µg/mL],MIC (E. coli ATCC 25922; [5]) [µg/mL],MIC (E. coli ATCC 25922; [6]) [µg/mL],MIC effect on E. coli (E. coli ATCC 25922),IC50 (fibroblast L929 cells) [µg/mL],apoptotic effects ([1]; at the IC50 concentration),antibacterial effect on S. aureus (MIC results) (S. aureus ATCC 25923),antibacterial effect on E. coli (MIC results) (E. coli ATCC 25922),"induced cell death ([1]; L929 cells, 24 h, IC50 concentration of each compound) [%]",viability at 24 h [2] [%]
"COc1ccc(C2C(C#N)=C(N)Oc3cc(NS(=O)(=O)c4ccc(NC(C)=O)cc4)ccc32)cc1OC (centres unmarked) [9b, N-[4-[2-amino-3-cyano-4-(3,4-dimethoxy-phenyl)-4H-chromene-7-ylsulfamoyl]-phenyl}-acetamide]",235 to 238,Negative,> 512,> 512,256,256,neutral or negative; also recorded: Neutral,234,–,–,–,–,–
"N#CC1=C(N)Oc2cc(NS(=O)(=O)c3ccccc3)ccc2C1c1ccccc1F (centres unmarked) [11b, N-(2-amino-3-cyano-4-(2-fluorophenyl)-4H-chromen-7-yl) benzenesulfonamide]",122 to 125,Neutral,256,256,256,256,neutral or negative; also recorded: Neutral,162,–,–,–,–,–
"CC(=O)Nc1ccc(S(=O)(=O)Nc2ccc3c(c2)OC(N)=C(C#N)C3c2ccccc2)cc1 (centres unmarked) [5b, N-[4-(2-amino-3-cyano-4-phenyl-4H-chromen-7-ylsulfamoyl)-phenyl]-acetamide]",240 to 243,Positive,128,128,128,128,Positive,173,–,–,–,–,–
"CSc1ccc(C2C(C#N)=C(N)Oc3cc(NS(=O)(=O)c4ccccc4)ccc32)cc1 (centres unmarked) [10b, N-(2-amino-3-cyano-4-(4-(methylthio)phenyl)-4H-chromen-7-yl)benzenesulfonamide]",135 to 138,Negative,> 512,> 512,256,256,neutral or negative; also recorded: Neutral,247,–,–,–,–,–
"Cc1noc(NS(=O)(=O)c2ccc(N)cc2)c1C [Sulfisoxazole, reference compound]",–,–,–,256,–,256,–,218,neither Sulfisoxazole nor Gentamicin demonstrated apoptotic effects,–,–,–,–
"CC(=O)Nc1ccc(S(=O)(=O)Nc2ccc3c(c2)OC(N)=C(C#N)C3c2ccc(Cl)cc2)cc1 (centres unmarked) [8b, N-[4-[2-amino-3-cyano-4-(4-chloro-phenyl)-4H-chromene-7-ylsulfamoyl]-phenyl}-acetamide]",–,Positive,32,32,64,64,Positive,90,–,robust antibacterial effect,robust antibacterial effect,56.8,43.2
